Test results as given in publication PMC10688625, “Evaluation of arsenic metabolism and tight junction injury after exposure to arsenite and monomethylarsonous acid using a rat in vitro blood–Brain barrier model” (PLOS ONE, 2023).
Like-named read-outs stand apart in the source and are kept apart here.

Key:
mouse brain slices = settings: cited from earlier work
[1] = mouse, in vivo; cited from earlier work
rat in vitro-BBB model [2] = assay type: cell-based
claudin-5 [3] = assay type: cell-based, rat
ZO-1 [4] = assay type: cell-based, rat
claudin-5 [5] = assay type: cell-based, rat; settings: 2 μM
ZO-1 [6] = assay type: cell-based, rat; settings: 2 μM
rat in vitro-BBB model [7] = system: rat in vitro-BBB model
rat in vitro-BBB model [8] = settings: 24 h

## O=[As][O-].[Na+] [sodium arsenite]
Mouse brain slices
  DMA^V formation in mouse brain slices: DMA^V was detected
[1]
  DMA^V in brain tissue: presence of DMA^V

## C[As](O)O [MMA^III, monomethylarsonous acid]
Rat in vitro-BBB model [2]; 0.1 μM, 6 h
  %TEER: 109.7 ± 16.6%
Rat in vitro-BBB model [2]; 0.1 μM, 24 h
  %TEER: 87.9 ± 13.0%
Rat in vitro-BBB model [2]; 1 μM, 6 h
  %TEER: 61.6 ± 6.19%
Rat in vitro-BBB model [2]; 1 μM, 24 h
  %TEER: 45.6 ± 2.09%
Rat in vitro-BBB model [2]; 2 μM, 6 h
  %TEER: 9.17 ± 4.62%
Rat in vitro-BBB model [2]; 2 μM, 24 h
  %TEER: 3.31 ± 0.67%
claudin-5 [3]; 0.1 μM, 6 h
  Claudin-5/β-actin: 30.5 ± 3.26
  Claudin-5/β-actin ratio for control: 0.45 ± 0.19
claudin-5 [3]; 0.1 μM, 24 h
  Claudin-5/β-actin: 34.1 ± 25.6
  Claudin-5/β-actin ratio for control: 0.37 ± 0.23
claudin-5 [3]; 1 μM, 6 h
  Claudin-5/β-actin: 25.8 ± 16.7
  Claudin-5/β-actin ratio for control: 0.35 ± 0.16
claudin-5 [3]; 1 μM, 24 h
  Claudin-5/β-actin: 14.5 ± 4.52
  Claudin-5/β-actin ratio for control: 0.16 ± 0.06
claudin-5 [3]; 2 μM, 6 h
  Claudin-5/β-actin: 9.38 ± 5.97
  Claudin-5/β-actin ratio for control: 0.16 ± 0.15
claudin-5 [3]; 2 μM, 24 h
  Claudin-5/β-actin: 4.68 ± 1.30
  Claudin-5/β-actin ratio for control: 0.05 ± 0.02
ZO-1 [4]; 0.1 μM, 6 h
  ZO-1/β-actin: 48.7 ± 25.7
  ZO-1/β-actin ratio for control: 0.60 ± 0.25
ZO-1 [4]; 0.1 μM, 24 h
  ZO-1/β-actin: 41.0 ± 24.5
  ZO-1/β-actin ratio for control: 0.54 ± 0.33
ZO-1 [4]; 1 μM, 6 h
  ZO-1/β-actin: 44.7 ± 26.2
  ZO-1/β-actin ratio for control: 0.55 ± 0.26
ZO-1 [4]; 1 μM, 24 h
  ZO-1/β-actin: 71.6 ± 15.1
  ZO-1/β-actin ratio for control: 0.93 ± 0.19
ZO-1 [4]; 2 μM, 6 h
  ZO-1/β-actin: 16.6 ± 5.59
  ZO-1/β-actin ratio for control: 0.23 ± 0.15
ZO-1 [4]; 2 μM, 24 h
  ZO-1/β-actin: 28.7 ± 13.3
  ZO-1/β-actin ratio for control: 0.37 ± 0.15
claudin-5 [5]; 6 h
  % Claudin-5 Area for control: 46.6 ± 12.6%
claudin-5 [5]; 24 h
  % Claudin-5 Area for control: 37.2 ± 11.4%
ZO-1 [6]; 6 h
  % ZO-1 Area for control: 55.0 ± 11.2%
ZO-1 [6]; 24 h
  % ZO-1 Area for control: 59.1 ± 9.76%
Rat in vitro-BBB model [7]
  detection of dimethylarsinous acid as metabolite: no dimethylarsinous acid was detected
  fraction oxidized or methylated (converted, detoxified) within the BBB: Approximately 65%
Rat in vitro-BBB model [7]; 0–6 h
  Penetration rate (%) DMA^V: 4.03±0.52%
  Penetration rate (%) MMA^III: 7.63±0.79%
  Penetration rate (%) MMA^V: 8.27±1.55%
  percentage of arsenic in total penetration rate: DMA^V: (28.5) %
Rat in vitro-BBB model [7]; 0–24 h
  Penetration rate (%) DMA^V: 9.01±0.14%
  Penetration rate (%) MMA^III: 13.7±5.09%
  Penetration rate (%) MMA^V: 27.9±3.59%
  percentage of arsenic in total penetration rate: DMA^V: (21.4) %
Rat in vitro-BBB model [8]; 0.1 μM
  Papp of sodium fluorescein: 1.90 ± 0.17 x 10-6 cm2/s
Rat in vitro-BBB model [8]; 1 μM
  Papp of sodium fluorescein: 2.78 ± 0.28 x 10-6 cm2/s
Rat in vitro-BBB model [8]; 2 μM
  Na-F values elevated compared to the control group: approximately 16 fold
  Papp of sodium fluorescein: 34.0 ± 4.97 x 10-6 cm2/s
